# Experimental data as given in patent US6303596A, “Use of taurolidine for treatment of leukemias” (priority 2000, dated 2001).
# Tests used:
# Type in all cases: cell-based, human
# TNFα = test: LPS-induced TNFα expression/secretion by MM6 cells, ELISA; conditions: 4 h
# Method: FIG. 3A and FIG. 3B are graphs depicting taurolidine inhibition of LPS-induced alpha […] (TNFα) expression by monocytic cells as determined by assay procedures. FIG. 3A represents MM6 cells; FIG. 3B represents PBMC. The cells were induced with LPS (hatched bars: 100 ng/ml LPS in RPMI+10% BCS; solid bars: 10 ng/ml in AIM-V+0.01% BCS) in the presence of varying concentrations of taurolidine. After four hours, cell supernatants were collected for TNFα ELISA. Data are expressed as percent of TNFα levels measured in cell cultures treated with LPS alone (no taurolidine or vehicle). Experiments were performed with duplicate samples and were repeated at least three times. Values shown in FIG. 3A are from a representative experiment. Values shown in FIG. 3B are mean±SEM of three experiments.
# All cells were cultured in a 5% CO2 atmosphere at 37° C. MM6 cells were grown in RPMI supplemented with 10% BCS, 2 mM L-glutamine, and 50 μg/ml gentamicin (RPMI+10% BCS). In some experiments, MM6 cells were rinsed once with HBSS without Ca^++ or Mg^++ and once with AIM-V before finally being resuspended in AIM-V supplemented with 0.01% BCS (AIM-V+0.01% BCS). […] AIM-V was supplemented with a low amount of BCS (0.01%) in order to provide a source of LPS-binding protein, which enhances the response of monocytic cells to LPS. Ulevitch, R. J. and Tobias, P. S., "Recognition of endotoxin by cells leading to transmembrne signaling," Curr Opin Immunol 6:125 (1994). HL-60, REH, and Jurkat were cultured in RPMI supplemented with 10% heat inactivated fetal bovine serum (FBS), 2 mM L-glutamine, and 50 μg/ml gentamicin. ECV304 were cultured in M199 supplemented with 10% FBS, mM L-glutamine, and 50 μg/ml gentamicin. GM5387 was cultured in MEM supplemented with 20% FBS, 2 mM L-glutamine, and 50 μg/ml gentamicin.
# For induction of TF or TNFα expression, MM6 cells or PBMC were cultured either in RPMI supplemented with 10% BCS or in AIM-V+0.01% BCS, and stimulated by adding LPS to final concentrations of 10 to 100 ng/ml. […]
# ECV304 = test: TUNEL / propidium iodide flow cytometry, ECV304; conditions: ECV304, 6 hours after treatment
# Method: In the second method, DNA fragmentation was detected via TUNEL assay according to the manufacturer's instructions. With this methodology, 2×10^6 cells were fixed with 2% paraformaldehyde, permeabilized with 0.1% Triton X-100/0.1% citrate, incubated at 37° C. with terminal deoxynucleotidyl transferase and FITC-dUTP, rinsed and analyzed by flow cytometry. Enhanced FITC signal indicates apoptosis-specific DNA fragmentation. Gavriali, et al, "Identification of programmed cell death in situ via specific labeling of nuclear DNA fragmentation," J Cell Biol 119:493 (1992). Parallel aliquots of unfixed cells were treated with PI and FITC-conjugated anti-CD14 and analyzed by flow cytometry, in order to identify cells with permeable cell membranes (since PI binds to DNA but is excluded from cells with intact plasma membranes) and also to determine the cell-specificity of the apoptotic signal.
# In another study, TUNEL assays were performed on all cell lines 6 hours after cells were initially exposed to taurolidine (cells were treated for 4 hours, rinsed, and then incubated for 2 more hours before TUNEL assay was performed).
# . Taurolidine and anisomycin induced apoptosis in MM6, HL-60, and Jurkat cells (Table VIII). MM6 and HL-60 cells were similarly effected, with >80% TUNEL-positive cells after 6 hours. […]
# Data are percent of total cell-size events, and are expressed as mean ± […]
# GM5387 = test: subcellular-sized events by flow cytometry, GM5387; conditions: GM5387, after taurolidine treatment
# Method: Less than 0.1% of ECV304 or GM5387 cells were TUNEL-positive 6 hours after treatment with taurolidine or anisomycin (Table VIII). Therefore, neither of these agents induce rapid DNA fragmentation in these cell types. However, there was approximately a 70% increase in the number of subcellular-sized events recorded by flow cytometry after taurolidine treatment of these cells, indicating some effect of taurolidine on cell integrity. These cell fragments were not stained by propidium iodide, consistent with them being apoptotic bodies.
smiles,measurement,setting,value
"O=S1(=O)CCN(CN2CCS(=O)(=O)NC2)CN1 [taurolidine, 4,4'-methylenebis(perhydro-1,2,4-thiadiazin 1,1-dioxide)]",effect on LPS-induced TNFα secretion,"TNFα; MM6, intermediate concentrations, particularly 25 μg/ml taurolidine",markedly stimulating TNFα secretion
same,inhibition of LPS-induced TNFα secretion,"TNFα; MM6, taurolidine 75 μg/ml",maximal inhibition
same,DNA fragmentation (TUNEL positivity),ECV304,did not demonstrate evidence for fragmentation of DNA
same,increase in the number of subcellular-sized events,GM5387,~70%
